Source: patent US7189701B1, “Tetrapeptide stimulating functional activity of neurons pharmacological agent based thereon and method of use thereof” (Sankt-Petersburgskaya Obschestvennaya Organizatsiya …, priority 1999, dated 2007)
Residues, ends and D or L forms follow the SMILES beside them.

How the values were obtained:
Format in all cases: in vivo
[1] = test system: rats; experiment: Serotonin metabolism in the brain, model of electrically induced pain stress
Protocol: In an hour the content of serotonin and its metabolite, 5-oxyindoleacetic acid, was measured in the parietal and posterior frontal regions of the brain.
Compensatory in character, the stimulation of serotonin metabolism diminishes the emotional perception of a pain impact, Natural “drawback” of the said mechanism consists in a quick transition to the state of decompensation. In control (untreated stress) the level of serotonin lowered, while that of 5-oxyindoleacetic acid rose (metabolic depletion phase).

[2] = test system: mice with compressed fibular nerve; experiment: Regeneration of the compressed peripheral (fibular) nerve, electrophysiological tests; conditions: 10 μg/kg i.p. daily for 8 days
Protocol: The study was accomplished on 22 white unbred male mice weighing 25 to 30 g (7 experimental and 15 control animals).
At the 1st stage of the study, the mice were chronically operated on to compress the fibular nerve. The fibular nerve (n. peroneus communus) in the Nembutal-narcotised mice (60 mg/kg, intraperitoneally) was compressed at a distance of 8 to 9 mm from the innervated muscle—long digital extensor (m. extensor digitorum longus—EDL). The animals were operated on the left hind leg, whilst the corresponding nerve and muscle of the right leg were intact and used further as an intact control.
Afterwards, since the 3rd day after the nerve compression, the mice were intraperitoneally injected with L-Ala-L-Glu-L-Asp-L-Pro tetrapeptide in dose 10 μg/kg, daily for 8 days. The control mice were treated with an equivalent amount of saline.
On the 11th day after the nerve compression surgery (and within 24 hours after the last tetrapeptide injection), the Nembutal-narcotised mice (60 mg/kg) were subject in vivo to electrophysiological tests for different functional parameters of the already germinated nerve and reinnervated skeletal muscular fibres (EDL).

[3] = test system: white unbred male mice; experiment: Acute toxicity according to Kerber, single intramuscular administration
Source text: Possible toxic effects of L-Ala-L-Glu-L-Asp-L-Pro (SEQ ID NO:1) tetrapeptide on the organism were studied in compliance with “The rules of preclinical estimation of safety of pharacological agents” (GLP) approved by the Department of State Control on Medicinal Agents and Medical Equipment of the Russian Federation of Dec. 29, 1997.
Objective of the study consisted in defining the tolerable toxic drug doses of the agent, estimating the stage and character of pathologic alterations in various organs and systems and in exploring the correlation between the toxic effects and the dose and duration of the drug application.
Acute toxicity of L-Ala-L-Glu-L-Asp-L-Pro (SEQ ID NO:1) tetrapeptide was determined according to Kerber. The study was performed on 66 white unbred male mice weighing 20 to 23 g kept in vivarium under standard regimen and fed upon standard rations. The animals were randomly divided into 6 equal groups by 11 mice in each. The animals were subject to a single intramuscular administration of 0.25 ml of the preparation in doses 1 mg/kg, 2 mg/kg, 3 mg/kg, 4 mg/kg, 5 mg/kg (several thousand times exceeding the therapeutic dose recommended for clinical trials). The control animals were administered the similar amount of saline.

[4] = test system: rats; experiment: Toxic effects of neurotropic agents (apomorphine, haloperidol, nicotine, caffeine), spontaneous motional activity
Protocol: Investigated was the action of L-Ala-L-Glu-L-Asp-L-Pro tetrapeptide on the toxic effects of neurotropic agents of various pharmacological groups.
In an hour after an intramuscular injection of saline (control) or L-Ala-L-Glu-L-Asp-L-Pro tetrapeptide (5 μg/kg) the rats were intraperitoneally administered toxic doses of different neuropharmacological agents (apomorphine, haloperidol, nicotine and caffeine). Thereby, the parameters of vertical (anxiety) and horizontal (locomotor activity) spontaneous motional activity were registered.

[5] = test system: rats; experiment: Chronic toxicity, 6 months intramuscular
Protocol: Chronic toxicity of L-Ala-L-Glu-L-Asp-L-Pro (SEQ ID NO:1) tetrapeptide obtained by the claimed method was investigated by means of a long-term administration thereof to rats weighing 150–250 g. The animals were subject to daily intramuscular administration of the drug in doses 1 μg/kg, 0.1 mg/kg, 1 mg/kg in 0.5 ml of saline for 6 months. Animals' behaviour, food and water consumption, the state of hair integument and mucous membranes were registered. The animals were weighed daily for the first 3 months of the experiment and then—once a month. Haematological and biochemical investigations were conducted in 3 months after the onset of the drug administration and on the experiment completion. Functions of the cardiovascular system, liver, pancreas, kidneys and adrenal glands were assessed. After the treatment completion some animals were subject to pathomorphologic examination with the purpose to estimate the state of different sections of the brain and bone marrow, heart, aorta, lungs, liver, kidneys, endocrine and immune organs.

[6] = 5 μg/kg, post-stress introduction, measured in an hour
[7] = 5 μg/kg intramuscular 1 hour before toxic dose of caffeine i.p.

For `C[C@H](N)C(=O)N[C@@H](CCC(=O)O)C(=O)N[C@@H](CC(=O)O)C(=O)N1CCC[C@H]1C(=O)O` [L-Ala-L-Glu-L-Asp-L-Pro tetrapeptide, L-Alanyl-L-Glutamyl-L-Aspartyl-L-Proline] (H-AEDP-OH), the “content of 5-oxyindoleacetic acid in the brain” value [1, 6] was “diminished”, the “content of serotonin in the brain” value [1, 6] was “increased” and the “levels of serotonin and its metabolite” value ([1]; intact animals) was “did not induce any changes”. The “improvement of the electric threshold of the regenerating nerve” value ([2]; 11th day after nerve compression) was 30–50%, the “acetyl choline muscular contraction rate” value ([2]; FIG. 3) was “tendency to diminish” and the “shortening of the latent M-response period” value ([2]; intact neuromuscular system) was 89%. The “shortening of the latent M-response period” value ([2]; regenerating nerve (and the muscle)) was 59%, the acute toxic reactions ([3]; doses several thousand times exceeding the therapeutic one) was “did not induce any acute toxic reactions” and the “alterations in the general state, behaviour, motional activity, hair and skin integument, physiologic discharges” value ([3]; single intramuscular 1-5 mg/kg) was “No alterations”. For the same molecule, the death of mice ([3]; single intramuscular 1-5 mg/kg, within 72 hours and in 14 days) was “none of the mice in either of the groups died”, the “effect on apomorphine toxic effects (anxiety, locomotor activity)” value ([4]; 5 μg/kg intramuscular 1 hour before toxic dose of apomorphine i.p.) was “diminished anxiety and locomotor activity” and the “effect on caffeine-induced anxiety” value [4, 7] was “lowered caffeine-induced anxiety”. For the same molecule, the “effect on locomotor activity after caffeine” value [4, 7] was “did not affect locomotor activity”, the “effect on haloperidol toxic effects (anxiety, locomotor activity)” value ([4]; 5 μg/kg intramuscular 1 hour before toxic dose of haloperidol i.p.) was “increased anxiety and locomotor activity” and the “effect on nicotine toxic effects (anxiety)” value ([4]; 5 μg/kg intramuscular 1 hour before toxic dose of nicotine i.p.) was “decreased the influence of nicotine on the animals' anxiety”. For the same molecule, the “side effects, chronic toxicity” value ([5]; intramuscular daily for 6 months, 1 μg/kg, 0.1 mg/kg, 1 mg/kg) was “absence of any side effects” and the “pathologic alterations (general state, peripheral blood indices, intrinsic organs, cardiovascular and respiratory systems, liver and kidney functions)” value ([5]; prolonged intramuscular administration to rats) was “no pathologic alterations”.
